# Results from US20170234881A1, “METHODS OF DIAGNOSING AND TREATING CANCER” (INSERM ( INSTITUT NATIONAL DE LA SANTÉ ET DE LA RECHERCHE …, priority 2014, published 2017).
# System: TS/A cells
# Test: Cell proliferation assay (BrDU incorporation), TS/A
# Assay type: cell-based, mouse
# Details: TS/A cells treated 24 h, concentration-dependent, level reached
# Description: FIG. 2. OCDO is a tumor promoter in vitro and in vivo and its inhibition contributes to the anti-tumor effects of Tam and DDA. (A, B) Histograms representing the effect of OCDO or 17β-estrogen (E2) on MCF7 (A) and TS/A (B) cell proliferation after 24 h treatment using a colorimetric immunoassay measuring BrDU incorporation in DNA (C, D) Histogram representing the effect of OCDO on MCF7 (C) and TS/A (D) cell invasion. Data are the mean of three separate experiments (±[…]) Mice were implanted s.c. with MCF7 (E) or TS/A (F) cells and animals (8 per group) were treated s.c. every day starting on the day of implantation with either the solvent vehicle or OCDO (16 μg/kg for MCF7 or 50 μg/kg for TS/A). Animals were monitored for tumour growth twice a week. The data are representative of three independent experiments. The mean tumor volume±s.e.m is shown, *P<0.05, **P<0.01, ***P<0.001 (analysis of variance (ANOVA), Dunnett's post test). […] (I, J, K). Murine […], or human MDA-MB231 (J) or MDA-MB468 (K) cells implanted s.c. into mice (8 per group) and animals were treated s.c. with either the solvent vehicle or OCDO (16 μg/kg for MDA-MB-231 and MDA-MB-468 or 50 μg/kg for E0771). […] At the end of this time, cells were incubated with BrDU for an additional 8 h and then evaluated for proliferation using the ELISA kit, Roche Diagnostic, as indicated by the manufacturer.
smiles,measurement,value
"CC(C)CCC[C@@H](C)[C@H]1CC[C@H]2[C@@H]3CC(=O)[C@@]4(O)C[C@@H](O)CC[C@]4(C)[C@H]3CC[C@]12C [OCDO, 6-oxo-cholestan-3β,5α-diol]",growth rate (cell proliferation) relative to the control,1.7 fold
